Key:
[1] = system: BCG killed vaccine; assay: Enhancing action on BCG vaccine (adjuvant activity), 24 hours foot-pad test; type: in vivo; conditions: ICR mouse; s.c. 0.2 ml mixture of BCG killed vaccine (100 μg/ml) and compound in Freund's incomplete adjuvant (1000 μg/ml); tuberculin 10 μg after 14 days; measured after 24 hours
Description: (1) Enhancing action on BCG vaccine (adjuvant activity)
0.2 ml of an equivalent weight mixture of a solution of BCG killed vaccine in physiological saline (100 μg/ml) and a solution of a compound of the invention in Freund's incomplete adjuvant (1000 μg/ml) was subcutaneously injected to the back of ICR mouse (one group consisting of 7 mice). After 14 days, 10 μg of tuberculin was intradermally injected into the hind foot-pad. Swelling of the foot-pad was measured after 24 hours (24 hours foot-pad test).
The control is the above mentioned mixture excluded a compound of the invention.

[2] = system: B type hepatitis vaccine (HBs); assay: Enhancing effect on hepatitis vaccine (adjuvant activity), IgG antibody by ELISA; type: in vivo; conditions: CDF1 mouse; for Anti HBs-ELISA unit, Primary response serum: i.p. 0.2 ml compound (100 μg/ml) mixed with HBs vaccine, serum at 3 weeks; for Anti HBs-ELISA unit, Secondary response serum: second i.p. injection of 0.2 ml test solution, serum at 2 weeks
Description: (2) Enhancing effect on hepatitis vaccine (adjuvant activity)
A compound of the invention was dissolved or suspended in physiological saline (100 μg/ml), and mixed with a solution of B type hepatitis vaccine (HBs) in physiological saline (100 μg/m) at an equivalent weight ratio to obtain the test solution. A solution excluded the compound of the invention from the test solution was used as control.
The test solution (0.2 ml) was intraperitoneally injected into CDF1 mouse (one group consisting of 10 mice). At 3 weeks after the administration, a blood was taken from the intravenous vein in eyeground of each the mice and centrifuged to obtain serum (primary response serum). Further, 0.2 ml of the test solution was again intraperitoneally injected into each mice, and at 2 weeks stage, serum was separated in the similar way (secondary response serum).
Value for IgG antibody against B type hepatitis virus of the resulting serum was measured by ELISA method.

[3] = system: influenza HA vaccine (A/Bangkok/10/83 strain, H1N1); assay: Enhancing effect on influenza HA vaccine (adjuvant activity), ELISA; type: in vivo; conditions: CDF1 mouse, compound (100 μg/ml) mixed with influenza HA vaccine (100 CCA/ml)
Description: (3) Enhancing effect on influenza HA vaccine (adjuvant activity)
A compound of the invention was dissolved or suspended in physiological saline (100 μg/ml). Separately, influenza HA vaccine (A/Bangkok/10/83 strain, H1N1) was dissolved in physiological saline (100 CCA/ml). These two solutions were mixed in an equivalent weight to make the test solution. Control is a solution excluded the compound of the invention from the test solution.
The test solution was administered into CDF1 mouse in a similar way to that of the test of enhancing action for hepatitis vaccine as mentioned above, to obtain primary and secondary response sera.

[4] = system: leukemia cells of L-1210 mouse; assay: Activation for macrophages: cytostatic rate of intraperitoneal macrophages on leukemia cells; type: in vivo; conditions: CDF1 mouse i.p. 500 μg/ml, 0.2 ml; macrophages collected after 4 days; macrophages:L-1210 cells 20:1; 72 hours
Description: (4) Activation for macrophages
A test solution of a compound of the invention in physicological saline (500 μg/ml, 0.2 ml) was intraperioneally injected into CDF1 mouse (one group consisting of mice). Intraperioneal macrophages which were collected after 4 days and leukemia cells of L-1210 mouse were mixed at the cell ratio of 20 and 1. Each 200 μl of the mixture was put on a microplate having 96 holes. After 72 hours, numbers of cells in each holes were counted, and cytostatic rate of the mixture was measured.

[5] = Stimulation effect on antibody producing cells (plaque numbers, Cunningham technique); type: in vivo, ICR mouse; conditions: for Plaque No.: ICR mouse, SRBC i.v. and compound 500 μg/ml, 0.2 ml i.v., splenic cells after 4 days; for Stimulation index: plaque number relative to control (saline) = 1
Description: (5) Stimulation effect on anti-body precluding cells
A solution of sheep […] (SRBC) in phosphate buffered physiological saline (5×10^7 cells/ml), 0.2 ml was injected into tail intravenous vein of ICR mouse (7 mice per group). At the same time, a solution of a compound of the invention in physiological saline (500 μg/ml), 0.2 ml was similarly injected. After 4 days, lien was picked up from the treated mouse to obtain splenic cells. Plaque numbers were measured by Cunningham technique.

[6] = system: E. coli (JC-2); assay: Phylactic effect, E. coli infection; type: in vivo; conditions: ICR mouse; compound 500 μg/ml, 0.2 ml i.p. one day before infection i.p. 1×10^7 /mouse; after 7 days of infection
Description: (§1) A solution of a compound of the invention in physiological saline (500 μg/ml), 0.2 ml was intraperitoneally injected into ICR mouse (20 mice per group). After a day, E. coli (JC-2) and Psud. aeruginosa (NCTC 10490) were incubated through intraperitoneal route so as to be at concentration of 1×10^7 /mouse. Survival rate after 7 days of infection was measured.

[7] = system: Psud. aeruginosa (NCTC 10490); assay: Phylactic effect, Psud. aeruginosa infection; type: in vivo; conditions: ICR mouse; compound 500 μg/ml, 0.2 ml i.p. one day before infection i.p. 1×10^7 /mouse; after 7 days of infection
Description: as §1

[8] = system: Meth A fibrosarcomas; assay: Antitumour effect, Meth A fibrosarcoma; type: in vivo; conditions: BALB/C mouse; s.c. 0.2 ml mixture of Meth A cells (1×10^6 cells/ml) and compound (1,000 μg/ml); after 35 days
Description: Meth A fibrosarcomas were suspended in phosphate buffered physiological saline (1×10^6 cells/ml). Separately, a solution of a compound of the invention in physiological saline was prepared (1,000 μg/ml). An equivalent weight mixture of these two solution (0.2 ml) was subcutaneously injected into BALB/C mouse (20 mice per group). Survival rate after 35 days was measured.

Structure (SMILES): CCCCCCCCCCCCCCCC(=O)O[C@H](CCCCCCCCCCC)CC(=O)OC[C@H]1OC(O)[C@H](NC(C)=O)[C@@H](O[C@H](C)C(=O)N[C@@H](C)C(=O)N[C@H](CCC(=O)OC)C(N)=O)[C@@H]1O (stereo partly drawn) [Example 3, N-[[2-O-{2-Acetamido-2,3-dideoxy-6-O-[(3R)-3-hexadecanoyloytetradecanoyl]-D-glucopyranos-3-yl}-D-lactoyl]]-L-alanyl-D-isoglutamine methyl ester]
- Swelling of Foot-pad [1]: 66.2 ± 12.3 × 0.01 mm
- Anti HBs-ELISA unit, Primary response serum [2]: 24,000 ELISA unit
- Anti HBs-ELISA unit, Secondary response serum [2]: 575,000 ELISA unit
- Anti-influenza HA virus ELISA unit, Primary response serum [3]: 5,200 ELISA unit
- Anti-influenza HA virus ELISA unit, Secondary response serum [3]: 57,000 ELISA unit
- Cytostatic rate [4]: 22.3 ± 1.0%
- Plaque No. [5]: 21.23 ± 9.9 × 10^3
- Stimulation index [5]: 4.4
- Survival rate, E. coli [6]: 45%
- Survival rate, Psud. aeruginosa [7]: 40%
- Survival rate [8]: 20%

Structure (SMILES): CCCCCCCCCCCCCC(=O)O[C@H](CCCCCCCCCCC)CC(=O)OC[C@H]1OC[C@H](NC(C)=O)[C@@H](O[C@H](C)C(=O)N[C@@H](C)C(=O)N[C@H](CCC(=O)OC)C(N)=O)[C@@H]1O [Example 5, N-[[2-O-{2-Acetamido-1,5-anhydro-2,3-dideoxy-6-O-[(3R)-3-tetradodecanoyloxytetradecanoyl]-D-glucitol-3-yl}-D-lactoyl]]-L-alanyl-D-isoglutamine methyl ester]
- Swelling of Foot-pad [1]: 69.3 ± 18.8 × 0.01 mm
- Anti HBs-ELISA unit, Primary response serum [2]: 3,600 ELISA unit
- Anti HBs-ELISA unit, Secondary response serum [2]: 120,000 ELISA unit
- Anti-influenza HA virus ELISA unit, Primary response serum [3]: 1,800 ELISA unit
- Anti-influenza HA virus ELISA unit, Secondary response serum [3]: 28,000 ELISA unit
- Cytostatic rate [4]: 58.6 ± 2.9%
- Plaque No. [5]: 5.83 ± 3.2 × 10^3
- Stimulation index [5]: 1.2
- Survival rate, E. coli [6]: 70%
- Survival rate, Psud. aeruginosa [7]: 55%
- Survival rate [8]: 35%

Structure (SMILES): CCCCCCCCCCCC(=O)O[C@H](CCCCCCCCCCC)CC(=O)OC[C@H]1OC[C@H](NC(C)=O)[C@@H](O[C@H](C)C(=O)N[C@@H](C)C(=O)N[C@H](CCC(=O)OC)C(N)=O)[C@@H]1O [Example 4]
- Swelling of Foot-pad [1]: 78.6 ± 19.1 × 0.01 mm
- Anti HBs-ELISA unit, Primary response serum [2]: 5,200 ELISA unit
- Anti HBs-ELISA unit, Secondary response serum [2]: 175,000 ELISA unit
- Anti-influenza HA virus ELISA unit, Primary response serum [3]: 2,300 ELISA unit
- Anti-influenza HA virus ELISA unit, Secondary response serum [3]: 32,000 ELISA unit
- Cytostatic rate [4]: 55.2 ± 2.8%
- Plaque No. [5]: 6.67 ± 3.6 × 10^3
- Stimulation index [5]: 1.4
- Survival rate, E. coli [6]: 65%
- Survival rate, Psud. aeruginosa [7]: 50%
- Survival rate [8]: 35%

Structure (SMILES): CCCCCCCCCCCC(=O)O[C@H](CCCCCCCCCCC)CC(=O)OC[C@H]1OC(O)[C@H](NC(C)=O)[C@@H](O[C@H](C)C(=O)N[C@@H](C)C(=O)N[C@H](CCC(=O)OC)C(N)=O)[C@@H]1O (stereo partly drawn) [Example 1, N-[[2-O-{2-Acetamido-2,3-dideoxy-6-O-[(3R)-3-dodecanoyloxytetradecanoyl]-D-glucopyranos-3-yl}-D-lactoyl]]-L-alanyl-D-isoglutamine methyl ester]
- Swelling of Foot-pad [1]: 59.2 ± 15.1 × 0.01 mm
- Anti HBs-ELISA unit, Primary response serum [2]: 10,800 ELISA unit
- Anti HBs-ELISA unit, Secondary response serum [2]: 150,000 ELISA unit
- Anti-influenza HA virus ELISA unit, Primary response serum [3]: 4,800 ELISA unit
- Anti-influenza HA virus ELISA unit, Secondary response serum [3]: 34,000 ELISA unit
- Cytostatic rate [4]: 40.0 ± 1.2%
- Plaque No. [5]: 10.56 ± 8.3 × 10^3
- Stimulation index [5]: 2.2
- Survival rate, E. coli [6]: 50%
- Survival rate, Psud. aeruginosa [7]: 45%
- Survival rate [8]: 30%

Structure (SMILES): CCCCCCCCCCCC(=O)O[C@H](CCCCCCCCCCC)CC(=O)OC[C@H]1O[C@@H](S)[C@H](NC(C)=O)[C@@H](O[C@H](C)C(=O)N[C@@H](C)C(=O)N[C@H](CCC(=O)OC)C(N)=O)[C@@H]1O [Example 7, N-[[2-O-{2-Acetamido-2,3-dideoxy-6-O-[(3R)-3-dodecanoyloxytetradecanoyl]-1-thio-β-D-glucopyranos-3-yl}-D-lactoyl]]-L-alanyl-D-isoglutamine methyl ester]
- Swelling of Foot-pad [1]: 50.6 ± 13.6 × 0.01 mm
- Anti HBs-ELISA unit, Primary response serum [2]: 2,500 ELISA unit
- Anti HBs-ELISA unit, Secondary response serum [2]: 110,000 ELISA unit
- Anti-influenza HA virus ELISA unit, Primary response serum [3]: 2,000 ELISA unit
- Anti-influenza HA virus ELISA unit, Secondary response serum [3]: 26,000 ELISA unit
- Cytostatic rate [4]: 22.8 ± 2.6%
- Plaque No. [5]: 10.88 ± 9.8 × 10^3
- Stimulation index [5]: 2.3
- Survival rate, E. coli [6]: 30%
- Survival rate, Psud. aeruginosa [7]: 20%
- Survival rate [8]: 10%
